ChEMBL document CHEMBL1143011, “NMR screening applied to the fragment-based generation of inhibitors of creatine kinase exploiting a new interaction proximate to the ATP binding site” (J Med Chem, 2007)

Assays:
[1] = molecular target: Creatine kinase M-type (Oryctolagus cuniculus) (UniProt P00563); assay: Inhibition of rabbit muscle creatine kinase at 27.5 uM in presence of 400 uM MgATP
[2] = molecular target: T1, Creatine kinase M-type (Oryctolagus cuniculus, UniProt P00563); assay: Inhibition of rabbit muscle creatine kinase-MgATP complex by pH-stat assay
T1 sequence (P00563 whole entry): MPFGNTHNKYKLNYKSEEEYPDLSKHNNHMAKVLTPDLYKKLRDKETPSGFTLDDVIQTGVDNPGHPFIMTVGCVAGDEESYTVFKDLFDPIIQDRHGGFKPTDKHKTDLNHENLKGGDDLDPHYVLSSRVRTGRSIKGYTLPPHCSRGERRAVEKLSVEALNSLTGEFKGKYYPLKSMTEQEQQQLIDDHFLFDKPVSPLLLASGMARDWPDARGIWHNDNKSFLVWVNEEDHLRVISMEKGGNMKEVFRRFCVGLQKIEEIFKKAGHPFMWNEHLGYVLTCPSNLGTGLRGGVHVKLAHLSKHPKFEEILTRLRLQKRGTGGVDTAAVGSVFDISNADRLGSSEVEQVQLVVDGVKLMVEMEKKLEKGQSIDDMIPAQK

[3] = molecular target: T1, Creatine kinase M-type; assay: Inhibition of rabbit muscle creatine kinase by pH-stat assay

Creatine kinase M-type (Oryctolagus cuniculus), sequence (P00563 whole entry): as above

| inhibition [1] | Ki [2] | IC50 [3] | Ki [3] | Compound |
| --- | --- | --- | --- | --- |
| 35% | 70 µM | 50 µM | 25 µM | O=C(Nc1ccc(C(=O)c2ccccc2)cc1)c1ccc(-c2ccc(C(=O)O)o2)cc1 |
| 63% |  |  |  | O=C(NCc1ccc(-c2ccccc2)cc1)c1ccc(-c2ccc(C(=O)O)o2)cc1 |
| 63% |  |  |  | O=C(c1ccccc1)c1ccc(-c2ccc(-c3ccc(C(=O)O)o3)cc2)cc1 |
| 20% |  |  |  | O=C(NCc1ccccc1)c1ccc(-c2ccc(C(=O)O)o2)cc1 |
